# In patent EP4741389A1, “KAT6 INHIBITOR” (Shanghai Qilu Pharmaceutical Research and Development …, priority 2023, dated 2025):
# Tests used:
# KAT6A = target: T1, KAT6A (Homo sapiens, UniProt Q92794); test: KATs acetyltransferase enzyme activity assay (TR-FRET), KAT6A; assay type: biochemical; settings: Biotin-H3 (1-21) and AcCOA, 90 minutes at room temperature
# T1 construct: purchased Active Motif 81223
# Description: (§1) I. KATs acetyltransferase enzyme activity assay
# • 1. The inhibitory effect of compounds on the acetyltransferase activity of KATs was evaluated using the Time-Resolved Fluorescence Resonance Energy Transfer (TR-FRET) assay. The assay was conducted in 384-well plates using Tris-HCl buffer. • 2. Compounds were diluted in DMSO and transferred to 384-well plates. […] Subsequently, 2.5 µL of a mixture containing KAT6A/KAT6B: Biotin-H3 (1-21, Genscript, C6829GL060) or KAT5/7/8: Bio-H4 (1-25, Genscript, C736BGL100) AcCOA (Sigma, A2056) was added, and the reaction proceeded at room temperature for 90 minutes. • 4. After the reaction, a detection mixture containing Europium-anti-acetyl-Histone H4 Lysine (H4Kac pan) Antibody (Perkin Elmer, TRF0412) and LANCE Ultra ULight™-Streptavidin in LANCE™ Detection buffer (10x) (Perkin Elmer, CR97-100) was added, followed by incubation at room temperature for 60 minutes. • 5. […] IC50 values were calculated by nonlinear regression using a four-parameter logistic equation in GraphPad Prism 8 software.
# KAT6B = target: T2, KAT6B (Homo sapiens, UniProt Q8WYB5); test: KATs acetyltransferase enzyme activity assay (TR-FRET), KAT6B; assay type: biochemical; settings: Biotin-H3 (1-21) and AcCOA, 90 minutes at room temperature
# T2 construct: purchased Active Motif 81224
# Description: as §1
# • 1. The inhibitory effect of compounds on the acetyltransferase activity of KATs was evaluated using the Time-Resolved Fluorescence Resonance Energy Transfer (TR-FRET) assay. The assay was conducted in 384-well plates using Tris-HCl buffer. • 2. Compounds were diluted in DMSO and transferred to 384-well plates. Enzyme solutions (KAT6: active motif (kit), 81223; KAT6B: active motif, 81224; KAT5: SignalChem, K314-380G; KAT7: ICE, S2210F-H21HF; KAT8: Active motif, 81225) were added and the mixture was incubated at room temperature for 15 minutes. • 3. Subsequently, 2.5 µL of a mixture containing KAT6A/KAT6B: Biotin-H3 (1-21, Genscript, C6829GL060) or KAT5/7/8: Bio-H4 (1-25, Genscript, C736BGL100) AcCOA (Sigma, A2056) was added, and the reaction proceeded at room temperature for 90 minutes. • 4. After the reaction, a detection mixture containing Europium-anti-acetyl-Histone H4 Lysine (H4Kac pan) Antibody (Perkin Elmer, TRF0412) and LANCE Ultra ULight™-Streptavidin in LANCE™ Detection buffer (10x) (Perkin Elmer, CR97-100) was added, followed by incubation at room temperature for 60 minutes. • 5. HTRF signals were measured using a BMG PHERAstar FSX (Ratio: 665nm/620nm). IC50 values were calculated by nonlinear regression using a four-parameter logistic equation in GraphPad Prism 8 software.
# ZR-75-1 cells = test: ZR-75-1 cell proliferation assay (CellTiter-Glo); assay type: cell-based; settings: Homo sapiens, ZR-75-1, 240 h, total culture period of 10 days, read-out: ZR-75-1 Proliferation Inhibition IC50
# Description: II. ZR-75-1 cell proliferation assay
# • 1. ZR-75-1 cells were seeded in 96-well plates and cultured overnight in an incubator at 37°C & 5% CO2. • 2. Compounds were diluted using culture medium and added to the 96-well plates. The plates were placed back into the incubator for continued culture. Every 5 days, the cells were trypsinized, counted, and re-seeded. After the cells had fully adhered, compounds were added again for incubation, for a total culture period of 10 days. • 3. After the culture period, 60 µL of CellTiter-Glo reagent (Promega, G7573) was added to each well. The plates were protected from light and shaken for 2 minutes to lyse the cells, followed by further incubation at room temperature, protected from light, for 30 minutes. • 4. Luminescence signals were read using a BMG PHERAstar FSX. IC50 values were calculated by nonlinear regression using a four-parameter logistic equation in GraphPad Prism 8 software.
# [1] = system: ZR-75-1 H3K23 Acetylation; test: Histone H3 acetylation assay (H3K23 acetylation in ZR-75-1 cells); assay type: cell-based; settings: Homo sapiens, 72 hours incubation, Odyssey CLx fluorescence, read-out: ZR-75-1 H3K23 Acetylation Inhibition IC50
# Description: III. Histone H3 acetylation assay
# • 1. ZR-75-1 cells were seeded at 5000 cells/40 µL per well in 384-well plates and cultured overnight in an incubator at 37°C & 5% CO2. • 2. 40 nL of serially diluted compounds were added to the 384-well plates, followed by further incubation for 72 hours. • 3. The supernatant was discarded, and 8 w/v% paraformaldehyde (final concentration was 4 w/v%) was added directly to the wells to fix the cells at room temperature. • 4. After washing twice with PBS, a permeabilization agent (40 µL of methanol) was added and incubated for 10 minutes to permeabilize the cell membranes. • 5. After washing twice with PBS, a blocking buffer was added and incubated at room temperature for 1 hour for blocking. • 6. The blocking buffer was discarded, and 20 µL of primary antibodies (recombinant Anti-Histone H3 (acetyl K23) antibody and Anti-Histone H4 antibody) diluted in blocking buffer (1:1000 by volume dilution) were added, followed by incubation at 4°C overnight. • 7. After washing three times with PBST (0.05 vol% Tween-20 in PBS), 20 µL of fluorescent secondary antibodies (IRDye 680RD Goat anti-MOUSE, Licor, 926-68070; IRDye 800CW Goat anti-Rabbit, Licor, 926-32211) diluted in blocking buffer (1:2000 by volume dilution) were added, followed by incubation at room temperature, protected from light, for 1 hour. Then, the plates were washed three times with PBST. • 8. Scanning was performed using an Odyssey CLx, and the fluorescence signal value for each well was quantified. IC50 values were calculated by nonlinear regression using a four-parameter logistic equation in GraphPad Prism 8 software.
# T2 sequence (Q8WYB5 whole entry): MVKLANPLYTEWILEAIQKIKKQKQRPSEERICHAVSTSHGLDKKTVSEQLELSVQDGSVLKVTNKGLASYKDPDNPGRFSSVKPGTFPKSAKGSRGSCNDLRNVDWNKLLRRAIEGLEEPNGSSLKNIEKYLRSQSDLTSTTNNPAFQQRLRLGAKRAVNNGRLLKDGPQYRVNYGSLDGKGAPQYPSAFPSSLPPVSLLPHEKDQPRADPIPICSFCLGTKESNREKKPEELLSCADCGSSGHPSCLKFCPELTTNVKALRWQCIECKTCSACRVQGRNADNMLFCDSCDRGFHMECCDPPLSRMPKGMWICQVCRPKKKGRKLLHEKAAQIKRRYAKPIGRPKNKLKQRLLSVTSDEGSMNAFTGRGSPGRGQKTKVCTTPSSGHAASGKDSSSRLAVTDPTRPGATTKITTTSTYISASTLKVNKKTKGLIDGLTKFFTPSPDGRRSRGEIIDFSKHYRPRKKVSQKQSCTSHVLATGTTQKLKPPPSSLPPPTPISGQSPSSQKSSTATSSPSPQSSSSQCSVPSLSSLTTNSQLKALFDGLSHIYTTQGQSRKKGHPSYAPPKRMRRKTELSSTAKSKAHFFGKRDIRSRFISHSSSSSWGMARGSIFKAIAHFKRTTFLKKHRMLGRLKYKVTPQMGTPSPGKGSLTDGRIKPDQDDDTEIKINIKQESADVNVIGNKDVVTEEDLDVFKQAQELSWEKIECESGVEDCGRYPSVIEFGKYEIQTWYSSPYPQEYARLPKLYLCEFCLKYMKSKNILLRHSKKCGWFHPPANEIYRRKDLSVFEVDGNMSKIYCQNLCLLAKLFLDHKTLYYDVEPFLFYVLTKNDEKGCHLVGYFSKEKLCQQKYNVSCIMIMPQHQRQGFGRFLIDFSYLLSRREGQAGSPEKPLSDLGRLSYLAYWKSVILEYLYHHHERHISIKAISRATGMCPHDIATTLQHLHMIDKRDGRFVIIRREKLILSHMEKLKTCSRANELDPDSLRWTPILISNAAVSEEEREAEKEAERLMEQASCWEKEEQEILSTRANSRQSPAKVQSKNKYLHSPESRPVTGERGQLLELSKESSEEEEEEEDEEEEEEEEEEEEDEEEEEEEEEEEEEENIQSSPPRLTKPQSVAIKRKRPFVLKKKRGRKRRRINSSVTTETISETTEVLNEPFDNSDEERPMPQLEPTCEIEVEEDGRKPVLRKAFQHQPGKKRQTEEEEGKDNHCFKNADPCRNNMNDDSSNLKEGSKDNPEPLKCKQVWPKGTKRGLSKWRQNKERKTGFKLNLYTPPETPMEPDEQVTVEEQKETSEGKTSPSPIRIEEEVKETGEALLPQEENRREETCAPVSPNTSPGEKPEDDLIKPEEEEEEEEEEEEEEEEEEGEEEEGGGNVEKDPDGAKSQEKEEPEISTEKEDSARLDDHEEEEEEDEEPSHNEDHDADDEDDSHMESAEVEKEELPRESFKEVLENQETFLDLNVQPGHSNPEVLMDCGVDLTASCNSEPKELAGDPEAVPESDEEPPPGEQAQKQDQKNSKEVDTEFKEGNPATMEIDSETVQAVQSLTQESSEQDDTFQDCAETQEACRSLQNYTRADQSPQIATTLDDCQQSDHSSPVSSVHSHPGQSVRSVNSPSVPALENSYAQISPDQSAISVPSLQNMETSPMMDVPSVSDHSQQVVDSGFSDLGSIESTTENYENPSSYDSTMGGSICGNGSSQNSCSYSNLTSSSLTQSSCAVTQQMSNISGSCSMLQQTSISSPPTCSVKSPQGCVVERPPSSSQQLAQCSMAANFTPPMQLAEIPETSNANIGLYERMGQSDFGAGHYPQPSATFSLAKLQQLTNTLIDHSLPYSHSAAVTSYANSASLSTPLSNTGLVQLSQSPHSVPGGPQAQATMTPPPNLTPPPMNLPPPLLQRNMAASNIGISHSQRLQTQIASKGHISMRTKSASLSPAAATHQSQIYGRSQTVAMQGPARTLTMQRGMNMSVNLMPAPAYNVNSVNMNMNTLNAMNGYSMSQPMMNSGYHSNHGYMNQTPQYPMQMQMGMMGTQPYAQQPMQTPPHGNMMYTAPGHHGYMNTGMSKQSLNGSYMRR
# T1 sequence (Q92794 488-778 limits assumed): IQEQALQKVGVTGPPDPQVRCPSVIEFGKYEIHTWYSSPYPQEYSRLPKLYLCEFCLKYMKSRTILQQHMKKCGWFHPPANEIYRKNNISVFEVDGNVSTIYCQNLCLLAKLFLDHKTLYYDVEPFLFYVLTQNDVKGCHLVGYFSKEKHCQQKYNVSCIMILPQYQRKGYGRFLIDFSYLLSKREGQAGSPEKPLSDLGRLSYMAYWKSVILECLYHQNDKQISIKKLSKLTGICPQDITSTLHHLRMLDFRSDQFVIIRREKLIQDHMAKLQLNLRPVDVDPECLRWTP
IC50 (KAT6A) [nM],IC50 (KAT6B) [nM],IC50 [1] [nM],SMILES,IC50 (ZR-75-1 cells) [nM]
3,23.3,4.6,"COc1ccc2c(c1S(=O)(=O)Nc1noc3cc(Cn4cccn4)c(F)c(OC)c13)OCCCO2 [Compound 29, N-(6-((1H-Pyrazol-1-yl)methyl)-5-fluoro-4-methoxybenzo[d]isoxazol-3-yl)-7-methoxy-3,4-dihydro-2H-benzo[b][1,4]dioxepine-6-sulfonamide]",0.6
4.3,45.9,15,"COc1ccc2c(c1S(=O)(=O)Nc1noc3cc(Cn4cccn4)c4c(c13)OCC4)OCCCO2 [Compound 35, N-(4-((1H-Pyrazol-1-yl)methyl)-2,3-dihydrobenzofuro[7,6-d]isoxazol-8-yl)-7-methoxy-3,4-dihydro-2H-benzo[b][1,4]dioxepine-6-sulfonamide]",3.3
2.7,19.2,8.6,"COc1cc2c(cc1S(=O)(=O)Nc1noc3cc(Cn4cccn4)cc(OC)c13)OCCCO2 [Compound 7, N-(6-((1H-Pyrazol-1-yl)methyl)-4-methoxybenzo[d]isoxazol-3-yl)-8-methoxy-3,4-dihyd ro-2H-benzo[b][1,4]dioxepine-7-sulfonamide]",2.4
1.3,8.9,27.1,"CCc1c(Cn2cccn2)cc2onc(NS(=O)(=O)c3c(OC)ccc4c3OCC3CC43)c2c1OC (stereo not drawn) [Compound 27, N-(6-((1H-Pyrazol-1-yl)methyl)-5-ethyl-4-methoxybenzo[d]isoxazol-3-yl)-5-methoxy-1,1a,2,7b-tetrahydrocyclopropa[c]chromene-4-sulfonamide]",11.5
1.4,12.7,11.5,"COc1ccc2c(c1S(=O)(=O)Nc1noc3cc(Cn4cccn4)c(C4CC4)cc13)OCCCO2 [Compound 14, N-(6-((1H-Pyrazol-1-yl)methyl)-5-cyclopropylbenzo[d]isoxazol-3-yl)-7-methoxy-3,4-di hydro-2H-benzo[b][1,4]dioxepine-6-sulfonamide]",8.6
8.9,97.5,20.2,"COc1ccc2c(c1S(=O)(=O)Nc1noc3cc(Cn4cccn4)cc(OC)c13)OCCCN2C [Compound 41, N-(6-((1H-Pyrazol-1-yl)methyl)-4-methoxybenzo[d]isoxazol-3-yl)-8-methoxy-5-methyl-2,3,4,5-tetrahydrobenzo[b][1,4]oxazepine-9-sulfonamide]",4.8
1.3,11.8,5.3,"COc1cc2c(cc1S(=O)(=O)Nc1noc3cc(Cn4cccn4)cc(OC)c13)C1CC1CO2 (stereo not drawn) [Compound 6, N-(6-((1H-Pyrazol-1-yl)methyl)-4-methoxybenzo[d]isoxazol-3-yl)-5-methoxy-1,1a,2,7b-tetrahydrocyclopropa[c] chromene-6-sulfonamide]",0.6
2.2,19.9,2.3,"COc1ccc2c(c1S(=O)(=O)Nc1noc3cc(Cn4cccn4)cc(OC)c13)OCCOC2 [Compound 10, N-(6-((1H-Pyrazol-1-yl)methyl)-4-methoxybenzo[d]isoxazol-3-yl)-8-methoxy-2,3-dihyd ro-5H-benzo [e] [1,4] dioxepine-9-sulfonamide]",1.4
2.5,46.8,12.7,"COc1ccc2c(c1S(=O)(=O)Nc1noc3cc(Cn4cccn4)cc(OC)c13)OCC(F)(F)CO2 [Compound 11, N-(6-((1H-Pyrazol-1-yl)methyl)-4-methoxybenzo[d]isoxazol-3-yl)-3,3-difluoro-7-methoxy-3,4-dihydro-2H-benzo[b] [1,4]dioxepine-6-sulfonamide]",–
2.2,37.6,23.7,"COc1ccc2c(c1S(=O)(=O)Nc1noc3cc(Cn4cccn4)c(OC)c(C)c13)OCC21CC1 [Compound 39, N-(6-((1H-Pyrazol-1-yl)methyl)-5-methoxy-4-methylbenzo[d]isoxazol-3-yl)-6-methoxy-2H-spiro[benzofuran-3,1'-cyclopropane]-7-sulfonamide]",2.6
2.2,12.3,37.7,"CCc1c(Cn2cccn2)cc2onc(NS(=O)(=O)c3c(OC)ccc4c3OCC43CC3)c2c1OC [Compound 28, N-(6-((1H-Pyrazol-1-yl)methyl)-5-ethyl-4-methoxybenzo[d]isoxazol-3-yl)-6-methoxy-2 H-spiro[benzofuran-3,1'-cyclopropane]-7-sulfonamide]",16.6
–,–,34.3,"COc1ccc2c(c1S(=O)(=O)Nc1noc3cc(Cn4cccn4)c(OC(F)F)cc13)OCCCO2 [Compound 13, N-(6-((1H-pyrazol-1-yl)methyl)-5-(difluoromethoxy)benzo[d]isoxazol-3-yl)-7-methoxy-3,4-dihydro-2H-benzo [b] [1,4] dioxepine-6-sulfonamide]",14.2
1.7,15.6,17.9,"COc1ccc2c(c1S(=O)(=O)Nc1noc3cc(Oc4ccccn4)cc(OC)c13)OC[C@@H]1C[C@H]21 [Compound 48, (1aR,7bS)-5-Methoxy-N-(4-methoxy-6-(pyridin-2-yloxy)benzo[d]isoxazol-3-yl)-1,1a,2,7 b-tetrahydrocyclopropa [c] chromene-4-sulfonamide]",–

SMILES,IC50 (KAT6A) [nM],IC50 (KAT6B) [nM],IC50 [1] [nM],IC50 (ZR-75-1 cells) [nM]
"COc1ccc2c(c1S(=O)(=O)Nc1noc3cc(Cn4cccn4)c(F)c(OC)c13)OCC1CC21 (stereo not drawn) [Compound 30, N-(6-((1H-Pyrazol-1-yl)methyl)-5-fluoro-4-methoxybenzo[d]isoxazol-3-yl)-5-methoxy-1,1a,2,7b-tetrahydrocyclopropa[c]chromene-4-sulfonamide]",0.8,1.8,0.8,0.15
"COc1cc2c(NS(=O)(=O)c3c(OC)ccc4c3OCC3CC43)noc2cc1Cn1cccn1 (single isomer, unassigned) [Compound 33]",1.1,1.2,0.2,0.03
"COc1ccc2c(c1S(=O)(=O)Nc1noc3cc(Cn4cccn4)c(F)c(OC)c13)OCC1CC21 (single isomer, unassigned) [Compound 30-P1]",1.4,1.4,0.3,0.08
